Measured values reported in ChEMBL document CHEMBL5550136, “Total synthesis/semi-synthesis of natural isopentenyl flavonoids with inhibitory activity on NLRP3 inflammasome” (Bioorg Med Chem Lett, 2024).
Active and inactive are the calls of the source. The calls are words filed in the database; no cut-off is given here.

Columns and labels:
[1] = molecular target: NACHT, LRR and PYD domains-containing protein 3 (Mus musculus, UniProt Q8R4B8); assay: Inhibition of NLRP3 inflammasome activation in mouse BMDM cells assessed as reduction in IL-1beta release by ELISA; type: cell-based
[2] = molecular target: NACHT, LRR and PYD domains-containing protein 3 (Mus musculus) (UniProt Q8R4B8); assay: Inhibition of NLRP3 inflammasome activation in mouse BMDM cells assessed as inhibition of mature IL-1beta release by immunoblotting analysis; type: cell-based
[3] = molecular target: NACHT, LRR and PYD domains-containing protein 3 (Mus musculus) (UniProt Q8R4B8); assay: Inhibition of NLRP3 inflammasome activation in mouse BMDM cells assessed as inhibition of caspase-1 release by immunoblotting analysis; type: cell-based
BMDM [4] = assay: Effect on NLRP3 protein expression in mouse BMDM cells; type: functional, cell-based
BMDM [5] = assay: Effect on pro-caspase-1 protein expression in mouse BMDM cells; type: functional, cell-based
BMDM [6] = assay: Effect on pro-IL-1beta protein expression in mouse BMDM cells; type: functional, cell-based

Chain of NACHT, LRR and PYD domains-containing protein 3 (Q8R4B8 whole entry, the tested form may be a part): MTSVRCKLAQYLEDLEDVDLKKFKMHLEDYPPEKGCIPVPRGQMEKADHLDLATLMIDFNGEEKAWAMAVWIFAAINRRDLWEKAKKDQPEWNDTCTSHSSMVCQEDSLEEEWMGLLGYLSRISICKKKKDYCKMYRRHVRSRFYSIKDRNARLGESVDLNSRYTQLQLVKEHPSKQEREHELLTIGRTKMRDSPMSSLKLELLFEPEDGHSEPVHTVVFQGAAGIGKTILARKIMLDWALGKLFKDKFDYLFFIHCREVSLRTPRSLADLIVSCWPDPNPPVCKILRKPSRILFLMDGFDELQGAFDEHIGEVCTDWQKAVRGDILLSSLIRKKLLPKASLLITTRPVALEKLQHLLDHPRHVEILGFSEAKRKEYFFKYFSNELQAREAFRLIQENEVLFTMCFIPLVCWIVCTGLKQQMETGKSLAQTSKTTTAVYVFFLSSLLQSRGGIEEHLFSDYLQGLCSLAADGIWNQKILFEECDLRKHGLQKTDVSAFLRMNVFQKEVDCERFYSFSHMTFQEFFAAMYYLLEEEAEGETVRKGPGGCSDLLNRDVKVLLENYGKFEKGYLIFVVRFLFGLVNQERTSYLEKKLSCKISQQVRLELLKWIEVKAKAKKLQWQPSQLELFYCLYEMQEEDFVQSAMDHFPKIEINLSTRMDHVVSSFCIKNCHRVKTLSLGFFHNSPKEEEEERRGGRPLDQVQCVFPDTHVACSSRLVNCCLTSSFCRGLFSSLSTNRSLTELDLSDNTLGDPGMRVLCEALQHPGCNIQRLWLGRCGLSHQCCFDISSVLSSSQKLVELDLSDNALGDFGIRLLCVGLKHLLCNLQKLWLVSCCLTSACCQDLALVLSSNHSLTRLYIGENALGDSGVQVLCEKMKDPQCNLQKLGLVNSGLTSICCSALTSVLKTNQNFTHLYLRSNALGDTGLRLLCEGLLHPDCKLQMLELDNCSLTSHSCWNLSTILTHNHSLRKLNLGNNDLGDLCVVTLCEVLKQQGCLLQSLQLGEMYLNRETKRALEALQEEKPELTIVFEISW
Chain of NACHT, LRR and PYD domains-containing protein 3 (Mus musculus) (Q8R4B8 whole entry, the tested form may be a part): as above

IC50 [1] | SMILES | other results
> 100 µM | COc1cc(-c2cc(=O)c3c(O)cc4c(c3o2)C=CC(C)(C)O4)ccc1O | 
41.2 µM | COc1cc(-c2cc(=O)c3c(O)cc(O)c(CC=C(C)C)c3o2)ccc1O | 
> 100 µM | COc1ccc(-c2cc(=O)c3c(O)cc4c(c3o2)C=CC(C)(C)O4)cc1 | 
17.3 µM | COc1cc(C2CC(=O)c3c(O)cc(O)c(CC=C(C)C)c3O2)c(O)cc1O (stereo not given) [KUSHENOL W] | 
3.4 µM | CC(C)=CCC/C(C)=C/Cc1c(O)cc2oc(-c3ccc(O)cc3)c(O)c(=O)c2c1O [MACARANGIN] | inhibition [2]: Dose-Dependent Effect; inhibition [3]: Dose-Dependent Effect; Activity (BMDM [4]): inactive; Activity (BMDM [5]): inactive; Activity (BMDM [6]): inactive

The next lines start with the compound.

SMILES | IC50 [1] | other results
O=c1c(O)c(-c2ccc(O)cc2)oc2cc(O)cc(O)c12 [KAEMPFEROL] | > 100 µM | 
COc1ccc(-c2cc(=O)c3c(O)cc(O)c(CC=C(C)C)c3o2)cc1 | 11.4 µM | 
CC(C)=CCc1c(O)cc2oc(-c3ccc(O)c(O)c3)c(O)c(=O)c2c1O [GANCAONIN P] | 20.4 µM | 
CC(C)=CCc1c(O)cc2oc(-c3ccc(O)cc3)c(O)c(=O)c2c1O [LICOFLAVONOL] | 8.5 µM | 
O=c1c(O)c(-c2ccc(O)c(O)c2)oc2cc(O)cc(O)c12 [QUERCETIN] | 37.1 µM | 
